Key:
colorectal cancer cells = experiment: Co-culture with pre-treatment of effector or target cell population; type: cell-based, Human; conditions: target cells pre-treated before co-culture
Description: Co-culture experiments were conducted with GFP+ SW480 colorectal cancer cells and either NK-92 natural killer cells or TALL-104 T cells at various effector/target ratios in a 48-well plate, in the presence or absence of 9-ING-41. Follow-up experiments compared the effect of pre-treating either the effector or the target cell population with 9-ING-41 before the co-culture experiment was started.

TALL-104 cells = experiment: Cytokine profile of immune cell culture supernatant, TALL-104; type: cell-based, Human; conditions: 1 μM, 48 hours
Description: Collection of cell culture supernatants used in cytokine measurements. Cells were plated at 3.5×10^4 cells in a 48-well plate (Thermo Fisher Scientific, Waltham, MA, USA) in complete medium and incubated at 37° C. with 5% CO2. At twenty-four hours after plating, almost all the tumor cells were adherent to the bottom of the flask and the complete medium was replaced with drug-containing medium. Subsequently, the culture supernatants were collected after forty-eight hours of incubation and were frozen at −80° C. until the measurement of cytokines was performed. The day of analysis, samples were thawed and centrifuged to remove cellular debris.
Human cytokine profiling. Human cell line culture supernatants were analyzed using an R&D systems Human Premixed Multi-Analyte Kit (R&D Systems, Inc., Minneapolis, MN, USA) and a Luminex 200 Instrument (LX200-XPON-RUO, Luminex Corporation, Austin, TX, USA) according to the manufacturer's instructions. […]
9-ING-41 increases secreted cytotoxic proteins IFN-v, Granzyme B, and TRAIL in immune cells. […] Here, the inventors determined how 9-ING-41 treatment impacts the immune cell cytokinome. […]

**Q.** `Cn1cc(C2=C(c3coc4ccc(F)cc34)C(=O)NC2=O)c2cc3c(cc21)OCO3` [9-ING-41] was tested. Which “cell-killing after pre-treatment of the target tumor cells” value (colorectal cancer cells) did it give?
**A.** bolstered cell-killing

**Q.** And the “IFN-γ, granzyme B, and TRAIL concentrations” value (TALL-104 cells)?
**A.** increases

Source: patent publication US20240009170A1, “INHIBITION OF GLYCOGEN SYNTHASE KINASE-3 (GSK-3)” (Brown University, priority 2020, published 2024)
